Patent publication US12077503B2, “Substituted cyclic amides and their use as herbicides” (FMC CORPORATION, priority 2015, dated 2024)
Like-named read-outs stand apart in the source and are kept apart here.

Key:
Format in all cases: in vivo
[1] = system: Kochia (Kochia scoparia); test: Test A preemergence; settings: Bassia scoparia, pre-emergence, 240 h; for pest or weed control at 125 g/ha: 125 g ai/ha; for pest or weed control at 500 g/ha: 500 g ai/ha, visual injury rating about 10 d after treatment, 0 to 100 scale (0 no effect, 100 complete control)
Method in brief: (§1)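 Ratings of 0 (no effect) to 100 (complete control) come from visual comparison with untreated controls roughly 10 d after treatment. Test chemicals, formulated in a non-phytotoxic solvent mixture with surfactant, were applied either as a preemergence directed soil spray on seeded soil or postemergence to one- to two-leaf plants 2 to 10 cm tall.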

[2] = system: barnyardgrass (Echinochloa crus-galli); test: Test A preemergence; settings: Echinochloa crus-galli, pre-emergence, 240 h; for pest or weed control at 125 g/ha: 125 g ai/ha, Preemergence, visual injury rating after approximately 10 d, read-out: Barnyardgrass plant response rating (0 to 100 scale, 0 is no effect, 100 is complete control); for pest or weed control at 500 g/ha: 500 g ai/ha, preemergence, visual injury rating about 10 d after treatment, 0 to 100 scale (0 no effect, 100 complete control), read-out: Barnyardgrass plant response rating
Method in brief: as §1

[3] = system: giant foxtail (Setaria faberii); test: Test A preemergence; settings: Setaria faberi, pre-emergence, 240 h; for pest or weed control at 125 g/ha: 125 g ai/ha, Preemergence, visual injury rating after approximately 10 d, read-out: Foxtail, Giant plant response rating (0 to 100 scale, 0 is no effect, 100 is complete control); for pest or weed control at 500 g/ha: 500 g ai/ha, preemergence, visual injury rating about 10 d after treatment, 0 to 100 scale (0 no effect, 100 complete control), read-out: Foxtail, Giant plant response rating
Method in brief: as §1

[4] = system: pigweed (Amaranthus retroflexus); test: Test A preemergence; settings: Amaranthus retroflexus, pre-emergence, 240 h; for pest or weed control at 125 g/ha: 125 g ai/ha; for pest or weed control at 500 g/ha: 500 g ai/ha, visual injury rating about 10 d after treatment, 0 to 100 scale (0 no effect, 100 complete control)
[5] = system: ragweed (common ragweed, Ambrosia elatior); test: Test A preemergence; settings: Ambrosia artemisiifolia, pre-emergence, 240 h; for pest or weed control at 125 g/ha: 125 g ai/ha; for pest or weed control at 500 g/ha: 500 g ai/ha, visual injury rating about 10 d after treatment, 0 to 100 scale (0 no effect, 100 complete control)
Method in brief: as §1

[6] = system: ryegrass, Italian (Italian ryegrass, Lolium multiflorum); test: Test A preemergence; settings: Lolium multiflorum, pre-emergence, 240 h; for pest or weed control at 125 g/ha: 125 g ai/ha; for pest or weed control at 500 g/ha: 500 g ai/ha, visual injury rating about 10 d after treatment, 0 to 100 scale (0 no effect, 100 complete control)
Method in brief: as §1

[7] = system: Kochia (Kochia scoparia); test: Test A postemergence; settings: Bassia scoparia, post-emergence, 240 h, postemergence; for pest or weed control at 125 g/ha: 125 g ai/ha, visual injury on 0 to 100 scale (0 no effect, 100 complete control); for pest or weed control at 500 g/ha: 500 g ai/ha
Method in brief: as §1

[8] = system: barnyardgrass (Echinochloa crus-galli); test: Test A postemergence; settings: Echinochloa crus-galli, post-emergence, 240 h, postemergence; for pest or weed control at 125 g/ha: 125 g ai/ha, visual injury on 0 to 100 scale (0 no effect, 100 complete control); for pest or weed control at 500 g/ha: 500 g ai/ha
Method in brief: as §1

[9] = system: giant foxtail (Setaria faberii); test: Test A postemergence; settings: Setaria faberi, post-emergence, 240 h, postemergence; for pest or weed control at 125 g/ha: 125 g ai/ha, visual injury on 0 to 100 scale (0 no effect, 100 complete control); for pest or weed control at 500 g/ha: 500 g ai/ha
Method in brief: as §1

[10] = system: ragweed (common ragweed, Ambrosia elatior); test: Test A postemergence; settings: Ambrosia artemisiifolia, post-emergence, 240 h, postemergence, read-out: Ragweed plant response rating; for pest or weed control at 125 g/ha: 125 g ai/ha, visual injury on 0 to 100 scale (0 no effect, 100 complete control), approx. 10 d
Method in brief: as §1

[11] = system: barnyardgrass (Echinochloa crus-galli); test: Test B flooded paddy test; settings: Echinochloa crus-galli, 250 g ai/ha, Flood; 0 to 100 scale where 0 is no effect and 100 is complete control; read-out: Barnyardgrass plant response rating
Method in brief: (§2)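 Visual ratings (0 none to 100 complete control) are relative to untreated plants, taken 13–15 d after treatment in a greenhouse. Test material went straight into floodwater standing 3 cm above the soil, kept constant, on plants at the 2-leaf stage.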

[12] = system: ducksalad (Heteranthera limosa); test: Test B flooded paddy test; settings: Heteranthera limosa, 250 g ai/ha, Flood; 0 to 100 scale where 0 is no effect and 100 is complete control; read-out: Ducksalad plant response rating
Method in brief: as §2

[13] = system: rice (Oryra sativa); test: Test B flooded paddy test; settings: Oryza sativa, 250 g ai/ha, Flood; 0 to 100 scale where 0 is no effect and 100 is complete control; read-out: Rice plant response rating
Method in brief: as §2

[14] = system: sedge, umbrella (small-flower umbrella sedge, Cyperus difformis); test: Test B flooded paddy test; settings: Cyperus difformis, 250 g ai/ha, Flood; 0 to 100 scale where 0 is no effect and 100 is complete control; read-out: Sedge, Umbrella plant response rating
Method in brief: as §2

[15] = Preemergence, visual injury rating after approximately 10 d, read-out: Kochia plant response rating (0 to 100 scale, 0 is no effect, 100 is complete control)
[16] = preemergence, read-out: Kochia plant response rating
[17] = Preemergence, visual injury rating after approximately 10 d, read-out: Pigweed plant response rating (0 to 100 scale, 0 is no effect, 100 is complete control)
[18] = preemergence, read-out: Pigweed plant response rating
[19] = Preemergence, visual injury rating after approximately 10 d, read-out: Ragweed plant response rating (0 to 100 scale, 0 is no effect, 100 is complete control)
[20] = preemergence, read-out: Ragweed plant response rating
[21] = Preemergence, visual injury rating after approximately 10 d, read-out: Ryegrass, Italian plant response rating (0 to 100 scale, 0 is no effect, 100 is complete control)
[22] = preemergence, read-out: Ryegrass, Italian plant response rating
[23] = approx. 10 d, read-out: Kochia plant response rating
[24] = visual injury, 0 to 100 scale (0 no effect, 100 complete control), approx. 10 d, read-out: Plant response rating, Kochia
[25] = approx. 10 d, read-out: Barnyardgrass plant response rating
[26] = visual injury, 0 to 100 scale (0 no effect, 100 complete control), approx. 10 d, read-out: Plant response rating, Barnyardgrass
[27] = approx. 10 d, read-out: Foxtail, Giant plant response rating
[28] = visual injury, 0 to 100 scale (0 no effect, 100 complete control), approx. 10 d, read-out: Plant response rating, Foxtail, Giant

Structure (SMILES)	pest or weed control at 125 g/ha [1, 15]	pest or weed control at 500 g/ha [1, 16]	pest or weed control at 125 g/ha [2]	pest or weed control at 500 g/ha [2]	pest or weed control at 125 g/ha [3]	pest or weed control at 500 g/ha [3]	pest or weed control at 125 g/ha [4, 17]	pest or weed control at 500 g/ha [4, 18]	pest or weed control at 125 g/ha [5, 19]	pest or weed control at 500 g/ha [5, 20]	pest or weed control at 125 g/ha [6, 21]	pest or weed control at 500 g/ha [6, 22]	pest or weed control at 125 g/ha [7, 23]	pest or weed control at 125 g/ha [8, 25]	pest or weed control at 125 g/ha [9, 27]	pest or weed control at 125 g/ha [10]	pest or weed control at 250 g/ha [11]	pest or weed control at 250 g/ha [12]	pest or weed control at 250 g/ha [13]	pest or weed control at 250 g/ha [14]	other results
O=C(Nc1cccc(F)c1F)[C@H]1C(=S)NC[C@@H]1c1ccc(C(F)(F)F)cc1 (racemic) [Compound 1048]	90%	90%	90%	90%	90%	90%	80%	90%	50%	80%	20%	40%	30%	50%	60%	0%	30%	50%	0%	0%	pest or weed control at 500 g/ha [7, 24]: 60%; pest or weed control at 500 g/ha [8, 26]: 80%; pest or weed control at 500 g/ha [9, 28]: 80%
O=C(Nc1ccccc1C(F)(F)F)[C@H]1C(=S)NC[C@@H]1c1ccc(C(F)(F)F)cc1 (racemic) [Compound 1049]	30%	70%	30%	70%	80%	90%	0%	60%	20%	40%	0%	30%	0%	30%	70%	0%	20%	70%	0%	0%	pest or weed control at 500 g/ha [7, 24]: 30%; pest or weed control at 500 g/ha [8, 26]: 50%; pest or weed control at 500 g/ha [9, 28]: 80%
Cc1ccc([C@H]2CN(C)C(=O)[C@]2(O)C(=O)Nc2cccc(F)c2F)cc1 (racemic) [Compound 1059]	–	20%	70%	90%	70%	80%	–	0%	–	30%	–	0%	0%	40%	0%	0%	0%	0%	0%	0%	pest or weed control at 125 g/ha ([1]; preemergence, 0 to 100 scale where 0 is no effect and 100 is complete control, approx. 10 d, read-out: Kochia plant response rating): 0%; pest or weed control at 125 g/ha ([4]; preemergence, 0 to 100 scale where 0 is no effect and 100 is complete control, approx. 10 d, read-out: Pigweed plant response rating): 0%; pest or weed control at 125 g/ha ([5]; preemergence, 0 to 100 scale where 0 is no effect and 100 is complete control, approx. 10 d, read-out: Ragweed plant response rating): 0%; pest or weed control at 125 g/ha ([6]; preemergence, 0 to 100 scale where 0 is no effect and 100 is complete control, approx. 10 d, read-out: Ryegrass, Italian plant response rating): 0%; pest or weed control at 500 g/ha ([7]; 0 to 100 scale, 0 is no effect, 100 is complete control, read-out: Kochia plant response rating): 0%; pest or weed control at 500 g/ha ([8]; 0 to 100 scale, 0 is no effect, 100 is complete control, read-out: Barnyardgrass plant response rating): 90%; pest or weed control at 500 g/ha ([9]; 0 to 100 scale, 0 is no effect, 100 is complete control, read-out: Foxtail, Giant plant response rating): 40%; pest or weed control at 500 g/ha ([10]; 500 g ai/ha, 0 to 100 scale, 0 is no effect, 100 is complete control): 0%
